In patent publication US20190083573A1, “DESIGNER RECEPTORS FOR […] AND METHODS OF USE THEREOF” (The Board of Trustees of the Leland Stanford Junior …, priority 2016, published 2019):

Key:
[1] = Effect of other analgesics on the light intensity required for a pain-related response (optical withdrawal testing); format: in vivo; details: mice, blinded experiments
Description: (§1) In mice that were co-injected with AAV6-hSyn-HA-hM4D-IRES-mCitrine and AAV6-hSyn-ChR2-YFP optical withdrawal testing was performed 2-3 weeks post injection. Mice were placed on a glass surface and allowed to habituate for 30-45 minutes. A 473 nm laser was connected to a fiber optic cable, and used to illuminate the paw regions of the mice at varying light intensities. Mice responded to the blue light with characteristic pain-signs, engaging in paw withdrawal, shaking, and licking. […] This value was termed the ‘optical withdrawal threshold’. Due to variation in the effective illumination spot, the optical withdrawal threshold was measured in total illuminated output (in mW), rather than in mW/mm^2. Mice were then briefly anesthetized with isoflurane, and injected intra-peritoneally with 100 μl of clozapine-N-oxide (for an effective dose of 10 mg/kg) or 100 μl of saline. Post-injection testing was done in a blinded manner, with optical withdrawal thresholds collected at 60-90 minutes. Data were then unblinded, and statistical significance assessed using the Student's t-test.

[2] = molecular target: T1, hM4D(Gi) (Homo sapiens, UniProt P08173, A203G/Y113C); assay: Mechanical withdrawal testing (von Frey) after intraperitoneal CNO in mice expressing hM4D; format: in vivo; details: mice expressing hM4D receptor, 10 mg/kg CNO i.p., 60 min after administration, n=10 paws
T1 construct: HA (N); expressed in transfected cells; host or cells: mouse sciatic-nerve primary afferent nociceptors, transduced in vivo with AAV6 under the hSyn promoter
T1 sequence (P08173 1-479 Y113C/A203G): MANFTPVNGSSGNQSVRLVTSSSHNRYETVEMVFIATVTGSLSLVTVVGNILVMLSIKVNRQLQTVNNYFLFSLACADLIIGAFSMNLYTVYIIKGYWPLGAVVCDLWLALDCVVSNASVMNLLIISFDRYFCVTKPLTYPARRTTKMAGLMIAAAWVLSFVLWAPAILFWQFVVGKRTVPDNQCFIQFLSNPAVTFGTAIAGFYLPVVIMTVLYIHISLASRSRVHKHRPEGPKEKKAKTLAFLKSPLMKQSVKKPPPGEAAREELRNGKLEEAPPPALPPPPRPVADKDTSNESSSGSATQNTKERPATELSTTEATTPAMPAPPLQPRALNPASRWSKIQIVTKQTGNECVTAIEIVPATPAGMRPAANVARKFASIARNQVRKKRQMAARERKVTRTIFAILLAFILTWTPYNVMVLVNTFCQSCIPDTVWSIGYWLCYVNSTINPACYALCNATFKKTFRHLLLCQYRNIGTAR
Description: (§2) 6-8 week old mice were anesthetized with 2% isoflurane, the thigh region was cleaned and sterilized, and then the sciatic nerve was exposed. A 35 G needle was inserted into the nerve, and 2-5 μl of AAV6-hSyn-HA-hM4D-IRES-mCitrine was injected into the nerve, at the rate of 1 μl/min. The cavity was then closed, analgesics were administered, and the recovery of the mice was observed. In some experiments, mice were co-injected with 3 μl of AAV6-hSyn-ChR2-YFP, to allow for analysis of chemogenetic inhibition of optogenetically evoked pain response.
(§3) Mice were tested 3-5 weeks after intraneural injection. Mice were placed on a von Frey apparatus, and allowed to habituate for 1 hour. Mechanical withdrawal thresholds were obtained using the up-down method of testing. Mice were then briefly anesthetized with isoflurane, and injected intra-peritoneally with 100 μl of clozapine-N-oxide (for an effective dose of 10 mg/kg) or 100 μl of saline. Post-injection testing was done in a blinded manner, with mechanical withdrawal thresholds collected at 45-120 minutes post-injection. Data were then unblinded, and statistical significance assessed using the Student's t-test.

[3] = molecular target: T1, hM4D(Gi); assay: Thermal withdrawal testing (Hargreaves) after intraperitoneal CNO in hM4D(Gi) mice; format: in vivo; details: 10 mg/kg CNO i.p.
Description: as §2
as §3, with “Hargreaves” for “von Frey”, “Thermal” for “Mechanical”, “latencies” for “thresholds”, “then obtained.” for “obtained using the up-down method of testing.”, “thermal” for “mechanical”

[4] = molecular target: T1, hM4D(Gi); assay: Optical withdrawal testing after CNO in hM4D+/ChR2+ mice; format: in vivo; details: 10 mg/kg CNO i.p., 60 min after administration, n=5 mice
Description: as §2
as §1, with “Mice were then briefly anesthetized with isoflurane, and injected intra-peritoneally with 100 μl of clozapine-N-oxide (for an effective dose of 10 mg/kg) or 100 μl of saline. Post-injection testing was done in a blinded manner, with optical withdrawal thresholds collected at 60-90 minutes.” left out

[5] = system: primary afferents; details: previously reported optogenetic inhibition of primary afferents; cited from earlier work
[6] = system: primary afferents; details: previously observed optogenetic inhibition of thermal perception; cited from earlier work

With `NCC1(CC(=O)O)CCCCC1` [gabapentin] the “effect on optical light sensitivity” value [1] was “strong effects”.

For `C[N+]1([O-])CCN(C2=Nc3cc(Cl)ccc3Nc3ccccc32)CC1` [CNO, clozapine-N-oxide], the “effect size, mechanical withdrawal thresholds” value [2] was 1.3, the “increase in mechanical withdrawal thresholds” value [2] was 45% and the “effect size, thermal thresholds” value ([3]; 60 minutes post-injection) was 1.903. The “increase in thermal thresholds” value ([3]; 60 minutes post-injection) was 61%, the “effect size, thermal thresholds” value ([3]; 90 minutes post-injection) was 2.2245 and the “increase in thermal thresholds” value ([3]; 90 minutes post-injection) was 54%. For the same molecule, the “effect size, optical withdrawal threshold” value [4] was 1.603 and the “increase in required light intensity to achieve a pain-related response (optical withdrawal threshold)” value [4] was 418%.

B1: NpHR: hyperpolarizing light-activatable polypeptide used for optogenetic inhibition (protein, UniProt P15647 1-291, looked up)
Halorhodopsin: MTETLPPVTESAVALQAEVTQRELFEFVLNDPLLASSLYINIALAGLSILLFVFMTRGLDDPRAKLIAVSTILVPVVSIASYTGLASGLTISVLEMPAGHFAEGSSVMLGGEEVDGVVTMWGRYLTWALSTPMILLALGLLAGSNATKLFTAITFDIAMCVTGLAAALTTSSHLMRWFWYAISCACFLVVLYILLVEWAQDAKAAGTADMFNTLKLLTVVMWLGYPIVWALGVEGIAVLPVGVTSWGYSFLDIVAKYIFAFLLLNYLTSNESVVSGSILDVPSASGTPADD
In the case of B1, the “effect size of inhibition, mechanical” value [5] is given as 0.802 and the “effect size of inhibition, thermal perception” value [6] is given as 2.05.
